Data reported in patent publication US8410085B2, “Phospholipid compositions and uses thereof” (Baylor College of Medicine, priority 2007, dated 2013).
Values joined by “and” are separate entries in the source; they are usually repeats but may differ in a detail not shown here. Equal entries are not always repeated. “Also recorded” adds a separate entry of the source.

How the values were obtained:
LRH-1 [1] = experiment: hepatic gene expression in LRH-1 f/f mice infected with Ad-Cre; assay type: in vivo, mouse; conditions: 100 mg/kg oral, 100 mg/kg
Description: (§1) Total liver RNA was isolated and prepared for the cDNA. […] Total liver RNA was isolated and prepared for cDNA.

FXR = FXR (Homo sapiens, UniProt Q96RI1); experiment: nuclear receptor cotransfection (RE-tk-luc), HeLa cells; conditions: 100 μM
wild type male mice = experiment: bile acids, serum glucose and NEFA in wild type mice after oral gavage; assay type: in vivo, mouse; conditions: 100 mg/kg oral
mouse CAR = mouse CAR (Mus musculus, UniProt O35627); experiment: nuclear receptor cotransfection (RE-tk-luc), HeLa cells; conditions: 100 μM
mouse CAR, sequence (O35627 whole entry): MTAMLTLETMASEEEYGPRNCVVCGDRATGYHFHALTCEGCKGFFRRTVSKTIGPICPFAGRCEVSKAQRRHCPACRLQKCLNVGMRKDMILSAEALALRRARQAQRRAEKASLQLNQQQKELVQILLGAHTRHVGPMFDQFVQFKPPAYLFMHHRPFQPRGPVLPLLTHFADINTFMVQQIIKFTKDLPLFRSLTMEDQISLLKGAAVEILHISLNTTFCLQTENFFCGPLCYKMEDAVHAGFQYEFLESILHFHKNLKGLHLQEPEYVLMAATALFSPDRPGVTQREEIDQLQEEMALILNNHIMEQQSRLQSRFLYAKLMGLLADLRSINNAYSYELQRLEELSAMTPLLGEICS

ERα = ERα (Homo sapiens, UniProt P03372); experiment: as above; conditions: 100 μM
[2] = target: hLRH-1 LBD / SRC-3 receptor interaction domain (Homo sapiens, UniProt O00482); experiment: mammalian two-hybrid assay, VP16-hLRH1 LBD with Gal4-SRC3 RID in HeLa cells
hLRH-1 LBD / SRC-3 receptor interaction domain, sequence (O00482 300-539 limits assumed): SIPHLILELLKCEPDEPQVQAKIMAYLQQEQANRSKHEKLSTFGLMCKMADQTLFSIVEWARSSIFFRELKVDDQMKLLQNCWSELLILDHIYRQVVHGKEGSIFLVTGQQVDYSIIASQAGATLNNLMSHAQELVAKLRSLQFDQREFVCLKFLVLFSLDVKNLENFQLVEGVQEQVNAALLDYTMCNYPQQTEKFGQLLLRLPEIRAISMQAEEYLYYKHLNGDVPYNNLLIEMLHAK
hLRH-1 LBD / SRC-3 receptor interaction domain, sequence (Q9Y6Q9 whole entry partner, the tested form may be a part): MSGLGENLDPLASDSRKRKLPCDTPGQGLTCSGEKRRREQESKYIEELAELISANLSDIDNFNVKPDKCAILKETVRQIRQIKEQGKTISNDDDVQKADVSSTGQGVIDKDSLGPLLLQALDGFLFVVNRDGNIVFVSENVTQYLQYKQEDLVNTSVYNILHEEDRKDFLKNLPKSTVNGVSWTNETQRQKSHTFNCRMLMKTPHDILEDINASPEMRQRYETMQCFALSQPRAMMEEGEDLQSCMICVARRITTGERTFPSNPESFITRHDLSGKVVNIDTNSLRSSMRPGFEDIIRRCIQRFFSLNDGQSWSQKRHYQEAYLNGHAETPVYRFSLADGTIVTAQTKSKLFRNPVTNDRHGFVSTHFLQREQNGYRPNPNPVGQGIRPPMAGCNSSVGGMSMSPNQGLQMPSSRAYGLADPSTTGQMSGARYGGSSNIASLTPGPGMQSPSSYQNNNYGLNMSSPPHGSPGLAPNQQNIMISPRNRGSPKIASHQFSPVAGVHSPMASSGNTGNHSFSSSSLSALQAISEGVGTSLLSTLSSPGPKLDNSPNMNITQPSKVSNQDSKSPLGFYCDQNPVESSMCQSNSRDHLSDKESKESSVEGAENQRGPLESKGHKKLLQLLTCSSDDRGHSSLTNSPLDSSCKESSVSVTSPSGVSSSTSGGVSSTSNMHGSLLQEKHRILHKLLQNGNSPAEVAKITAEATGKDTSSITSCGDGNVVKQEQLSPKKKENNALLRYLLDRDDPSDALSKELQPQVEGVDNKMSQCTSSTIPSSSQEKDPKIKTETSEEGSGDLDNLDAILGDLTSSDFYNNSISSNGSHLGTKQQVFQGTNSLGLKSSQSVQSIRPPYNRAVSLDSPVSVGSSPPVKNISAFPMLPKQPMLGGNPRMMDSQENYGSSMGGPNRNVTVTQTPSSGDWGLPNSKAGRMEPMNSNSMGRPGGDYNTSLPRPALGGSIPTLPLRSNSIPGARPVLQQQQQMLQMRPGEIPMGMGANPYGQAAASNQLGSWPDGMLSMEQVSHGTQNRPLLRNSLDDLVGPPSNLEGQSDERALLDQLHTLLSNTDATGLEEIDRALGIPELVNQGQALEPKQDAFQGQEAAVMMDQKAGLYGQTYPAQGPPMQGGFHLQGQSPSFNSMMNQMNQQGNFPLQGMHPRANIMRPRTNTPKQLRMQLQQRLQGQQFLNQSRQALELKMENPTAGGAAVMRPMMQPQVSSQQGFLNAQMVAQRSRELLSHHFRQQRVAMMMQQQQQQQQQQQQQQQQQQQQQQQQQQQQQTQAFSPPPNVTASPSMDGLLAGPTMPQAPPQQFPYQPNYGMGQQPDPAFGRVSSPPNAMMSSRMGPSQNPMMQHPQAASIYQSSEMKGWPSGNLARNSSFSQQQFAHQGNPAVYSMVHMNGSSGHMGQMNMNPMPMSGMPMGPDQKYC

[3] = test system: hepatic expression of Cyp7A1, Cyp8B1, mSR-BI, SHP; experiment: hepatic gene expression (Q-PCR) in wild type mice after oral gavage; assay type: in vivo, mouse; conditions: 100 mg/kg oral, five times over three days
Description: as §1

LRH-1 target Cyp8B1 = experiment: hCYP8B1 expression by Q-PCR in C3A HepG2 cells
PPARα = PPARα (Homo sapiens, UniProt Q07869); experiment: nuclear receptor cotransfection (RE-tk-luc), HeLa cells; conditions: 100 μM
PPARα, sequence (Q07869 whole entry, species assumed): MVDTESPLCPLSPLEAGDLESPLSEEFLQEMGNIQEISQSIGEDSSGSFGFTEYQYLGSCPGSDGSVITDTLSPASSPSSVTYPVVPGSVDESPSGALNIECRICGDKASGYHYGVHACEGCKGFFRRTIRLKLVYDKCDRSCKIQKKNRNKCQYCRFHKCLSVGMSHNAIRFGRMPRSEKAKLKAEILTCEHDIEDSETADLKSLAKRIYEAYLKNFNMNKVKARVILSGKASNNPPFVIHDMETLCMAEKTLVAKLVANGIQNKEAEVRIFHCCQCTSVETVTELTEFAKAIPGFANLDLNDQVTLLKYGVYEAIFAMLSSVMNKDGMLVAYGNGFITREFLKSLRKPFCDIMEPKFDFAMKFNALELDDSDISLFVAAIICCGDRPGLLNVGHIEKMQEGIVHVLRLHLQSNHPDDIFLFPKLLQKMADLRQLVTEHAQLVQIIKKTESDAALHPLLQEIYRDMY

LRH-1 [4] = target: T1, LRH-1 (Homo sapiens, UniProt O00482); experiment: mouse SHP promoter (mSHP1080-Luc) activation by hLRH-1 in HeLa cells; conditions: 100 μM
T1 sequence (O00482 whole entry): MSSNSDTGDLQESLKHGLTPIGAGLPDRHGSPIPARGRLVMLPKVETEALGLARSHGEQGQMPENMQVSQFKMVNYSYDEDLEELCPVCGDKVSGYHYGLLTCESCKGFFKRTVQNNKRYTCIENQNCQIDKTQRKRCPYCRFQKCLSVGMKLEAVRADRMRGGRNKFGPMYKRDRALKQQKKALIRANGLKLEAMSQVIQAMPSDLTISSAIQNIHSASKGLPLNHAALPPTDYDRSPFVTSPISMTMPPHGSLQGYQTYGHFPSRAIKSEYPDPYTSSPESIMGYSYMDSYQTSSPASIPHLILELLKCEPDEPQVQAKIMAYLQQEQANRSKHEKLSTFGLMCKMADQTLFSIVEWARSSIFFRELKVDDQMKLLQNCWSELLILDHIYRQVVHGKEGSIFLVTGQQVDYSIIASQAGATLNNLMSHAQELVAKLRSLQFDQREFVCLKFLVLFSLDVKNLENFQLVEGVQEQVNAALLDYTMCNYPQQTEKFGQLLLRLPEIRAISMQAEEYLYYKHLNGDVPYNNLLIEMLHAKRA

LXRα = LXRα (Homo sapiens, UniProt Q13133); experiment: nuclear receptor cotransfection (RE-tk-luc), HeLa cells; conditions: 100 μM
RXRα = RXRα (Homo sapiens, UniProt P19793); experiment: as above; conditions: 100 μM
LRH-1 [5] = target: T1, LRH-1; experiment: human LRH-1 transactivation, HeLa cotransfection with LRH-1/SF-1 response element luciferase reporter; assay type: cell-based; design: expressed in transfected cells; host or cells: HeLa (A1, A3); conditions: HeLa cells
Procedure: Controls (vector only and no lipid) are as indicated. […] Cells were treated with 100 μM of the indicated PCs and luciferase expression (RLU, relative light units) was normalized using an internal β-galactosidase control. vec, empty vector; −, ethanol solvent control.
HeLa cells were transfected with an hLRH-1 expression vector along with mSHP1080-Luc reporter. […] Oct4-PPmut Luc is identical to Oct4-PP Luc except for the insertion of point mutations in the DR0 element. […] HeLa cells were cotransfected with various nuclear receptors and the reporter plasmid (RE-tk-luc). […] Data are expressed for each reporter as fold activation of normalized luciferase activity relative to veh-treated cells.
A number of different phosphatidylcholine (PC) species were screened for effects on human LRH-1 transactivation in HeLa cell cotransfections with a synthetic luciferase reporter containing multiple copies of an LRH-1/SF-1 response element.

human PXR = human PXR (Homo sapiens, UniProt O75469); experiment: nuclear receptor cotransfection (RE-tk-luc), HeLa cells; conditions: 100 μM
human PXR, sequence (O75469 whole entry): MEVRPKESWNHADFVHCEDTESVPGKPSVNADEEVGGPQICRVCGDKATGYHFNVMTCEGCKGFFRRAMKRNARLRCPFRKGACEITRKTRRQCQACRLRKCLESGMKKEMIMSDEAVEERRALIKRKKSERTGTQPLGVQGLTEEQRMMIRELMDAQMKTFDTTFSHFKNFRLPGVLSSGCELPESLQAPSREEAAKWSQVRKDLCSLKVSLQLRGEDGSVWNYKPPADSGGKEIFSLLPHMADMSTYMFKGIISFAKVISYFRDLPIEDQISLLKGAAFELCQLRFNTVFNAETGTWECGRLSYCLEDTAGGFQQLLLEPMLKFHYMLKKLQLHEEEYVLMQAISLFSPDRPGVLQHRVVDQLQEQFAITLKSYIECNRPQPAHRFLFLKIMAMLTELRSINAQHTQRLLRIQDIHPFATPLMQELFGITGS

LRH-1 [6] = target: T1, LRH-1; experiment: LRH-1 Luc reporter in C3A HepG2 cells (endogenous hLRH-1); conditions: C3A/HepG2 cells or cells with non-target control siRNAs
PPARγ = PPARγ (Homo sapiens, UniProt P37231); experiment: nuclear receptor cotransfection (RE-tk-luc), HeLa cells; conditions: 100 μM
LRH-1 [7] = target: T1, LRH-1; experiment: Oct4 proximal promoter (Oct4-PP Luc) activation by hLRH-1 in COS-1 cells
TRβ = TRβ (Homo sapiens, UniProt P10828); experiment: nuclear receptor cotransfection (RE-tk-luc), HeLa cells; conditions: 100 μM
TRβ, sequence (P10828 whole entry): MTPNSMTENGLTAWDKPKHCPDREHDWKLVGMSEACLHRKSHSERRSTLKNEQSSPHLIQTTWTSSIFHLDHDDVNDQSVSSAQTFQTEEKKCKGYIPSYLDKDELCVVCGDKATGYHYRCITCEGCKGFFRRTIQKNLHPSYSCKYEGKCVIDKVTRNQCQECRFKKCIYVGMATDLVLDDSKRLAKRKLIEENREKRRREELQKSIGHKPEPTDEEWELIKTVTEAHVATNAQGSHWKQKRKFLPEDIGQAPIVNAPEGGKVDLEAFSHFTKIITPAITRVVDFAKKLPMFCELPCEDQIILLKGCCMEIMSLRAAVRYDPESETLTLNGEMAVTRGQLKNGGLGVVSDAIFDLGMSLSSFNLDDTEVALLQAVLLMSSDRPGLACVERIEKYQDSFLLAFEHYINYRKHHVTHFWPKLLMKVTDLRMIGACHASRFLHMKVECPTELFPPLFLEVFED

LRH-1 [8] = target: T1, LRH-1; conditions: CV-1 and HEK293T cells, compared with HeLa
human CAR = human CAR (Homo sapiens, UniProt Q14994); experiment: nuclear receptor cotransfection (RE-tk-luc), HeLa cells; conditions: 100 μM
SF-1 = SF-1 (Homo sapiens, UniProt Q13285); experiment: SF-1 transactivation, reporter cotransfection in HeLa cells; conditions: 100 μM
GST-hLRH-1 LBD / SRC-3 = GST-hLRH-1 LBD / SRC-3 (Homo sapiens, UniProt O00482); experiment: GST pulldown, GST-hLRH-1 LBD with in vitro translated 35S-labeled SRC-3
GST-hLRH-1 LBD / SRC-3, sequence (O00482 300-539 limits assumed): as the sequence (O00482 300-539 limits assumed) above
GST-hLRH-1 LBD / SRC-3, sequence (Q9Y6Q9 whole entry partner, the tested form may be a part): as the sequence (Q9Y6Q9 whole entry partner, the tested form may be a part) above

PPARδ = PPARδ (Homo sapiens, UniProt Q03181); experiment: nuclear receptor cotransfection (RE-tk-luc), HeLa cells; conditions: 100 μM
PPARδ, sequence (Q03181 whole entry, species assumed): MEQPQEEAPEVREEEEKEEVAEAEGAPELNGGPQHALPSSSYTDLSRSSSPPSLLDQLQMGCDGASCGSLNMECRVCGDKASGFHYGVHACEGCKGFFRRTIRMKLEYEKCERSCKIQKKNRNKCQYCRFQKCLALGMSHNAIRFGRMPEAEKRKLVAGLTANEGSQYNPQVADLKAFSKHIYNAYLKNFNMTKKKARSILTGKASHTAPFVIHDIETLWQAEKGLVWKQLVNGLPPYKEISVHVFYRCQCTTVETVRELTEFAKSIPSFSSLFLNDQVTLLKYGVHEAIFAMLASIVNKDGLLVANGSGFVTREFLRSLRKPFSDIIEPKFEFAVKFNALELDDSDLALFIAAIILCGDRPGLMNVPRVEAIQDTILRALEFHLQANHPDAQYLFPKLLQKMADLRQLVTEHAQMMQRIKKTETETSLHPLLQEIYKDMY

mouse LRH-1 = mouse LRH-1 (Mus musculus, UniProt P45448); experiment: mouse LRH-1 transactivation, reporter cotransfection
mouse LRH-1, sequence (P45448 whole entry): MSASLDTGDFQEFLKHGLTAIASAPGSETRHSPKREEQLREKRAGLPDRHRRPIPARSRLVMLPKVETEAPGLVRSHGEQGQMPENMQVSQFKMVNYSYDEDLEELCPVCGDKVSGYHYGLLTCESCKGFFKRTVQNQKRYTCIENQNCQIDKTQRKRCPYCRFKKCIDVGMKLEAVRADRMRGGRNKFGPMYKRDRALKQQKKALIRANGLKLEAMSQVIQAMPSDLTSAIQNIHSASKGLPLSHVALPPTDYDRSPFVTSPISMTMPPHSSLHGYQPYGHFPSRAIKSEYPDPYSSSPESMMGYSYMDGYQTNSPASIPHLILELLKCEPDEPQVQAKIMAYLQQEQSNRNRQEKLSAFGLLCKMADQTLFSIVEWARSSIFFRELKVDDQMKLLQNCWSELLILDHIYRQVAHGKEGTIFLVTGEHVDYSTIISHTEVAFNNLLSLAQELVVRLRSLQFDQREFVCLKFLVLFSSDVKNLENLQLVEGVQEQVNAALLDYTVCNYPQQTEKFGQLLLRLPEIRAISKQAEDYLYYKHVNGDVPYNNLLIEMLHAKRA

RARβ = RARβ (Homo sapiens, UniProt P10826); experiment: nuclear receptor cotransfection (RE-tk-luc), HeLa cells; conditions: 100 μM

## CCCCCCCCCCC(=O)OCC(COP(=O)([O-])OCC[N+](C)(C)C)OC(=O)CCCCCCCCCC (stereo not drawn) [DUPC, diundecanoylphosphatidylcholine]
LRH-1 [1]
  hepatic gene expression response when LRH-1 gene removed by Cre: not observed; also recorded: completely absent
FXR
  activation or inhibition of FXR: did not activate or inhibit
Wild type male mice
  liver bile acids: somewhat lower
  serum bile acid levels: substantially elevated
  serum free fatty acids: decreased levels
  serum glucose levels: decreased serum glucose levels
  total bile acid pool: significant increase
Mouse CAR
  activation or inhibition of mouse CAR: did not activate or inhibit
ERα
  activation or inhibition of ERα: did not activate or inhibit
[2]
  interaction of hLRH-1 LBD with SRC-3 RID: stimulated
[3]
  hepatic expression of Cyp7A1: significantly induced
  hepatic expression of Cyp8B1: significantly induced
  hepatic expression of SHP: repressed
  hepatic expression of mSR-BI: significantly induced
LRH-1 target Cyp8B1; C3A/HepG2 cells or cells with non-target control siRNAs
  expression of Cyp8B1: modestly but significantly induced
LRH-1 target Cyp8B1; siRNA hLRH-1
  Cyp8B1 response when LRH-1 expression is knocked down: lost
PPARα
  activation or inhibition of PPARα: did not activate or inhibit
LRH-1 [4]
  increase of LRH-1 transactivation of the native mouse SHP promoter: approximately 2 fold
LXRα
  activation or inhibition of LXRα: did not activate or inhibit
RXRα
  activation or inhibition of RXRα: did not activate or inhibit
LRH-1 [5]; 100 μM
  LRH-1 transactivation (luciferase): responses
LRH-1 [5]; reporter gene, dose response 1-250 μM, read-out: EC50 for activation of hLRH-1
  EC50: ~60 µM and 57 µM
Human PXR
  activation or inhibition of human PXR: did not activate or inhibit
LRH-1 [6]
  LRH-1 Luc luciferase activity: increased luciferase
PPARγ
  activation or inhibition of PPARγ: did not activate or inhibit
LRH-1 [7]; COS-1 cells, Oct4-PP Luc
  response with the Oct4 promoter: induced a similar response
LRH-1 [7]; point mutations in the DR0 element
  activation of Oct4-PPmut Luc: eliminates activation
TRβ
  activation or inhibition of TRβ: did not activate or inhibit
LRH-1 [8]
  LRH-1 transactivation response: similar, but lesser responses
Human CAR
  activation or inhibition of human CAR: did not activate or inhibit
SF-1
  SF-1 activation: activate SF-1
GST-hLRH-1 LBD / SRC-3; GST pulldown, 100 μM
  interaction of GST-LRH1 with SRC-3: further increased
GST-hLRH-1 LBD / SRC-3; PhosphorImager quantitation
  increase of SRC-3 binding: approximately 3 fold
PPARδ
  activation or inhibition of PPARδ: did not activate or inhibit
Mouse LRH-1
  mouse LRH-1 response versus human LRH-1: essentially equivalent responses
RARβ
  activation or inhibition of RARβ: did not activate or inhibit
